Experimental data from ChEMBL document CHEMBL1909046, “DrugMatrix in vitro pharmacology data”.

Experiments:
[1] = molecular target: T1, C-X-C chemokine receptor type 2 (Homo sapiens, UniProt P25025); type: cell membranes, Membrane; conditions: cho-k1; further: in other assays of this panel Not Active means under 50% inhibition at 10 µM
T1 sequence (P25025 whole entry): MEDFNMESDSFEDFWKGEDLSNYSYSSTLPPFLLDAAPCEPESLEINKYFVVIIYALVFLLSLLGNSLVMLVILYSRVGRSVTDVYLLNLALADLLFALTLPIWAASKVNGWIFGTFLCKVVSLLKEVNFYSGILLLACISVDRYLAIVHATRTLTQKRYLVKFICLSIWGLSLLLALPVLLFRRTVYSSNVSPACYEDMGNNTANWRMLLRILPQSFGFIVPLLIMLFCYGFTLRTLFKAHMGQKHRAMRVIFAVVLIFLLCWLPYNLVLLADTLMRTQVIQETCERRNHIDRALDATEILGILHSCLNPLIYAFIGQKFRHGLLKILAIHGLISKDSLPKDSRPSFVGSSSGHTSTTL

Leukotriene C4 synthase = molecular target: T2, Leukotriene C4 synthase (Cavia porcellus, UniProt A6XA80); type: tissue-based, Lung;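 further: enzyme inhibition assay of leukotriene C4 synthase, using LTA4 as the substrate; in other assays of this panel Not Active means under 50% inhibition at 10 µM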
T2 sequence (A6XA80 whole entry): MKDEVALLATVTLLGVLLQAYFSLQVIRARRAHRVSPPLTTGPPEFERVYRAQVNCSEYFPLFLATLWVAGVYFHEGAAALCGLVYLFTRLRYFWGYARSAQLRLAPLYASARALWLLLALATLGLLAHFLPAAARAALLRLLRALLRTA

[2] = molecular target: 5-hydroxytryptamine receptor 1B (Rattus norvegicus, UniProt P28564); type: cell membranes, Wistar, Cerebral cortex, Membrane; further: in other assays of this panel Not Active means under 50% inhibition at 10 µM
B2 bradykinin receptor = molecular target: T3, B2 bradykinin receptor (Homo sapiens, UniProt P30411); type: cell membranes, Membrane; conditions: chem-1; further: in other assays of this panel Not Active means under 50% inhibition at 10 µM
T3 sequence (P30411 whole entry): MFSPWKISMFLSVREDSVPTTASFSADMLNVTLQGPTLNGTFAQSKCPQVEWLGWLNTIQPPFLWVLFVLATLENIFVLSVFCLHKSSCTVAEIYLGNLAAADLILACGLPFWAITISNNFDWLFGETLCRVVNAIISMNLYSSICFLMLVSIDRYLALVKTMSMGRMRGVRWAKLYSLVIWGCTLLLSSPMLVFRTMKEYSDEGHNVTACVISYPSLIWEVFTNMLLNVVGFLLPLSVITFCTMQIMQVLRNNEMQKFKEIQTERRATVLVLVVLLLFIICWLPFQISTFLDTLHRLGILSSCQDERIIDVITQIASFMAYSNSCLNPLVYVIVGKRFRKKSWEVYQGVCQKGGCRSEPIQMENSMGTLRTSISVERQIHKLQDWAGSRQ

Cytochrome P450 2C19 = Cytochrome P450 2C19 (Homo sapiens, UniProt P33261); conditions: bti-tn-5b1-4; further: in other assays of this panel Not Active means under 50% inhibition at 10 µM
Calcitonin receptor = molecular target: T4, Calcitonin receptor (Homo sapiens, UniProt P30988); type: cell membranes, Membrane; conditions: t47d; further: in other assays of this panel Not Active means under 50% inhibition at 10 µM
T4 sequence (P30988 whole entry): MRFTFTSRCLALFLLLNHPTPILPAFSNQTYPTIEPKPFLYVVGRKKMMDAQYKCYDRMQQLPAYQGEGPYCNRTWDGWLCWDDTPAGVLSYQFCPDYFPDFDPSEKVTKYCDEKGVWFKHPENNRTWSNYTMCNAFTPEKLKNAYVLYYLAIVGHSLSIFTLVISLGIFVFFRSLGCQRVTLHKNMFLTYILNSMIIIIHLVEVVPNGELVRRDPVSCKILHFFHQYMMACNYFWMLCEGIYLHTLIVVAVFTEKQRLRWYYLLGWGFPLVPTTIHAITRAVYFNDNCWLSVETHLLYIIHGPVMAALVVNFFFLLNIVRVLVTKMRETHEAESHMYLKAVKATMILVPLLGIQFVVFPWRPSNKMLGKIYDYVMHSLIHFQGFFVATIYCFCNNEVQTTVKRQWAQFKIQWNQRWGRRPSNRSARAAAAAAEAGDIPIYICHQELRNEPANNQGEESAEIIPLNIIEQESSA

[3] = molecular target: T5, Muscarinic acetylcholine receptor M2 (Homo sapiens, UniProt P08172); type: cell membranes, CHO-K1, Membrane; conditions: cho-k1; further: in other assays of this panel Not Active means under 50% inhibition at 10 µM
T5 sequence (P08172 whole entry): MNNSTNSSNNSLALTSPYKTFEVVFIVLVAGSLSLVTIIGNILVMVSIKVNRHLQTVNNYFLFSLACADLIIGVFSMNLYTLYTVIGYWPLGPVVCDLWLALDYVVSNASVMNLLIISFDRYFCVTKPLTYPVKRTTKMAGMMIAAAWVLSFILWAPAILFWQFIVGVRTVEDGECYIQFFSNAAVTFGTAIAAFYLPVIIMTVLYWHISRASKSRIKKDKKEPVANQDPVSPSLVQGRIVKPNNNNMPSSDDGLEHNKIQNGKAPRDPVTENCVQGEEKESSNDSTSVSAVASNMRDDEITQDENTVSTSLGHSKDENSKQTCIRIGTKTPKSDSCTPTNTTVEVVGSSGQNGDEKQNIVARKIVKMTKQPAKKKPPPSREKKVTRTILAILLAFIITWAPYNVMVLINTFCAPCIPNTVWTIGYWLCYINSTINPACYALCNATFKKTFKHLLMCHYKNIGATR

[4] = DRUGMATRIX: Nicotinic Acetylcholine radioligand binding (ligand: [125I] Epibatidine); type: cell membranes, Membrane; conditions: imr-32; Not Active = under 50% inhibition at 10 µM

Cytochrome P450 2C19, sequence (P33261 whole entry): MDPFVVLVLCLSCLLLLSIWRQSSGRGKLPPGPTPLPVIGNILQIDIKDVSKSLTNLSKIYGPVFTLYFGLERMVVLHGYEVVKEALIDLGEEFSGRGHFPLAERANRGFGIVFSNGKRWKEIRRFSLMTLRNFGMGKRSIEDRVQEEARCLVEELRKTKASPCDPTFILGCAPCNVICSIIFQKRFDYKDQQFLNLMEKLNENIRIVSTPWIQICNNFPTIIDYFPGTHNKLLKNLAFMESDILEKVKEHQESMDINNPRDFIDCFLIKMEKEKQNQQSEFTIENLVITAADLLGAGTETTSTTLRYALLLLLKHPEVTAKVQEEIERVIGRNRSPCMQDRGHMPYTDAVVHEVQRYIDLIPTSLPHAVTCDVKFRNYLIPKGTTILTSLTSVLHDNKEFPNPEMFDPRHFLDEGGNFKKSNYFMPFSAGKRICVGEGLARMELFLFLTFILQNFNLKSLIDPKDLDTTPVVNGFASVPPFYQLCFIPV
5-hydroxytryptamine receptor 1B, sequence (P28564 whole entry): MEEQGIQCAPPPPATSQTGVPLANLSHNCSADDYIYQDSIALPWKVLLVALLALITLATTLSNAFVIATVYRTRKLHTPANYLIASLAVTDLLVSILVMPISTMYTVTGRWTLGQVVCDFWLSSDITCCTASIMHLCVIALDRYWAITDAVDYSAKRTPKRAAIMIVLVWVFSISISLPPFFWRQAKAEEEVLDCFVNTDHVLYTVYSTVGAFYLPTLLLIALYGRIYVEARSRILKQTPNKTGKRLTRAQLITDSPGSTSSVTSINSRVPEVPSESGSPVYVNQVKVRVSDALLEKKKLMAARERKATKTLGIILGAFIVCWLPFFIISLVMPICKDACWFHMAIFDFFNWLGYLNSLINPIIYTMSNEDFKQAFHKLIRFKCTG

CO[C@@]1(NC(=O)CSCC#N)C(=O)N2C(C(=O)O)=C(CSc3nnnn3C)CS[C@@H]21 [CEFMETAZOLE]
Not Active: IC50 [1] | IC50 (Leukotriene C4 synthase) | IC50 [2] | IC50 (B2 bradykinin receptor) | IC50 (Cytochrome P450 2C19) | Ki (Cytochrome P450 2C19) | IC50 (Calcitonin receptor) | IC50 [3] | IC50 [4] | Ki [4]

CC(=O)O[C@]1(C(C)=O)CC[C@H]2[C@@H]3C=C(C)C4=CC(=O)CC[C@]4(C)[C@H]3CC[C@@]21C [MEGESTROL ACETATE]
Not Active: IC50 [1] | IC50 (Leukotriene C4 synthase) | IC50 [2] | IC50 (B2 bradykinin receptor) | IC50 (Cytochrome P450 2C19) | Ki (Cytochrome P450 2C19) | IC50 (Calcitonin receptor) | IC50 [3] | IC50 [4] | Ki [4]

COc1cc(CNC(=O)CCCC/C=C/C(C)C)ccc1O [CAPSAICIN]
Not Active: IC50 [1] | IC50 (Leukotriene C4 synthase) | IC50 [2] | IC50 (B2 bradykinin receptor) | IC50 (Cytochrome P450 2C19) | Ki (Cytochrome P450 2C19) | IC50 (Calcitonin receptor) | IC50 [3] | IC50 [4] | Ki [4]

CC(C)(C)c1ccc(S(=O)(=O)/C=C/C#N)cc1 [BAY-11-7085]
Not Active: IC50 [1] | IC50 (Leukotriene C4 synthase) | IC50 [2] | IC50 (B2 bradykinin receptor) | IC50 (Cytochrome P450 2C19) | Ki (Cytochrome P450 2C19) | IC50 (Calcitonin receptor) | IC50 [3] | IC50 [4] | Ki [4]

CCOC(=O)[C@H](CCc1ccccc1)N[C@@H](C)C(=O)N1Cc2ccccc2C[C@H]1C(=O)O
Not Active: IC50 [1] | IC50 (Leukotriene C4 synthase) | IC50 [2] | IC50 (B2 bradykinin receptor) | IC50 (Cytochrome P450 2C19) | Ki (Cytochrome P450 2C19) | IC50 (Calcitonin receptor) | IC50 [3] | IC50 [4] | Ki [4]

CC[C@H]1OC(=O)[C@H](C)[C@@H](O[C@H]2C[C@@](C)(OC)[C@@H](O)[C@H](C)O2)[C@H](C)[C@@H](O[C@@H]2O[C@H](C)C[C@H](N(C)C)[C@H]2O)[C@](C)(O)C[C@@H](C)CN(C)[C@H](C)[C@@H](O)[C@]1(C)O [AZITHROMYCIN]
Not Active: IC50 [1] | IC50 (Leukotriene C4 synthase) | IC50 [2] | IC50 (B2 bradykinin receptor) | IC50 (Cytochrome P450 2C19) | Ki (Cytochrome P450 2C19) | IC50 (Calcitonin receptor) | IC50 [3] | IC50 [4] | Ki [4]

Cc1cccc(Nc2ccccc2C(=O)O)c1C [MEFENAMIC ACID]
Not Active: IC50 [1] | IC50 (Leukotriene C4 synthase) | IC50 [2] | IC50 (B2 bradykinin receptor) | IC50 (Cytochrome P450 2C19) | Ki (Cytochrome P450 2C19) | IC50 (Calcitonin receptor) | IC50 [3] | IC50 [4] | Ki [4]

COC(=O)c1ccccc1O [METHYL SALICYLATE]
Not Active: IC50 [1] | IC50 (Leukotriene C4 synthase) | IC50 [2] | IC50 (B2 bradykinin receptor) | IC50 (Cytochrome P450 2C19) | Ki (Cytochrome P450 2C19) | IC50 (Calcitonin receptor) | IC50 [3] | IC50 [4] | Ki [4]

CC[C@H](C)C(=O)O[C@H]1C[C@H](O)C=C2C=C[C@H](C)[C@H](CC[C@@H](O)C[C@@H](O)CC(=O)O)[C@H]21 [PRAVASTATIN]
Not Active: IC50 [1] | IC50 (Leukotriene C4 synthase) | IC50 [2] | IC50 (B2 bradykinin receptor) | IC50 (Cytochrome P450 2C19) | Ki (Cytochrome P450 2C19) | IC50 (Calcitonin receptor) | IC50 [3] | IC50 [4] | Ki [4]

C[C@]12C/C(=C/O)C(=O)C[C@@H]1CC[C@@H]1[C@@H]2CC[C@@]2(C)[C@H]1CC[C@]2(C)O [OXYMETHOLONE]
Not Active: IC50 [1] | IC50 (Leukotriene C4 synthase) | IC50 [2] | IC50 (B2 bradykinin receptor) | IC50 (Cytochrome P450 2C19) | Ki (Cytochrome P450 2C19) | IC50 (Calcitonin receptor) | IC50 [3] | IC50 [4] | Ki [4]

Clc1cc2c(cc1Cl)Oc1cc(Cl)c(Cl)cc1O2 [2,3,7,8-TETRACHLORODIBENZO-P-DIOXIN]
Not Active: IC50 [1] | IC50 (Leukotriene C4 synthase) | IC50 [2] | IC50 (B2 bradykinin receptor) | IC50 (Cytochrome P450 2C19) | Ki (Cytochrome P450 2C19) | IC50 (Calcitonin receptor) | IC50 [3] | IC50 [4] | Ki [4]

OCCO [ETHYLENE GLYCOL]
Not Active: IC50 [1] | IC50 (Leukotriene C4 synthase) | IC50 [2] | IC50 (B2 bradykinin receptor) | IC50 (Cytochrome P450 2C19) | Ki (Cytochrome P450 2C19) | IC50 (Calcitonin receptor) | IC50 [3] | IC50 [4] | Ki [4]

NC[C@H]1O[C@H](O[C@H]2[C@H](O)[C@@H](O[C@H]3O[C@H](CO)[C@@H](O)[C@H](N)[C@H]3O)[C@H](N)C[C@@H]2N)[C@H](O)[C@@H](O)[C@@H]1O [KANAMYCIN]
Not Active: IC50 [1] | IC50 (Leukotriene C4 synthase) | IC50 [2] | IC50 (B2 bradykinin receptor) | IC50 (Cytochrome P450 2C19) | Ki (Cytochrome P450 2C19) | IC50 (Calcitonin receptor) | IC50 [3] | IC50 [4] | Ki [4]

O=C(/C=C/c1ccc(O)c(O)c1)OCCc1ccccc1 [CAFFEIC ACID PHENETHYL ESTER]
Not Active: IC50 [1] | IC50 (Leukotriene C4 synthase) | IC50 [2] | IC50 (B2 bradykinin receptor) | IC50 (Cytochrome P450 2C19) | Ki (Cytochrome P450 2C19) | IC50 (Calcitonin receptor) | IC50 [3] | IC50 [4] | Ki [4]

NC[C@@H]1O[C@H](O[C@H]2[C@@H](O)[C@H](O[C@@H]3[C@@H](O)[C@H](N)C[C@H](N)[C@H]3O[C@H]3O[C@H](CN)[C@@H](O)[C@H](O)[C@H]3N)O[C@@H]2CO)[C@H](N)[C@@H](O)[C@@H]1O [FRAMYCETIN]
Not Active: IC50 [1] | IC50 (Leukotriene C4 synthase) | IC50 [2] | IC50 (B2 bradykinin receptor) | IC50 (Cytochrome P450 2C19) | Ki (Cytochrome P450 2C19) | IC50 (Calcitonin receptor) | IC50 [3] | IC50 [4] | Ki [4]

CCCCCC[C@H]1C(=O)O[C@H](C)[C@H](NC(=O)c2cccc(NC=O)c2O)C(=O)O[C@@H](C)[C@@H]1OC(=O)CC(C)C [ANTIMYCIN A]
Not Active: IC50 [1] | IC50 (Leukotriene C4 synthase) | IC50 [2] | IC50 (B2 bradykinin receptor) | IC50 (Cytochrome P450 2C19) | Ki (Cytochrome P450 2C19) | IC50 (Calcitonin receptor) | IC50 [3] | IC50 [4] | Ki [4]

Oc1ccccc1O [CATECHOL]
Not Active: IC50 [1] | IC50 (Leukotriene C4 synthase) | IC50 [2] | IC50 (B2 bradykinin receptor) | IC50 (Cytochrome P450 2C19) | Ki (Cytochrome P450 2C19) | IC50 (Calcitonin receptor) | IC50 [3] | IC50 [4] | Ki [4]

Cc1c(F)c(N2CCNC(C)C2)cc2c1c(=O)c(C(=O)O)cn2C1CC1 (stereo not given) [GREPAFLOXACIN]
Not Active: IC50 [1] | IC50 (Leukotriene C4 synthase) | IC50 [2] | IC50 (B2 bradykinin receptor) | IC50 (Cytochrome P450 2C19) | Ki (Cytochrome P450 2C19) | IC50 (Calcitonin receptor) | IC50 [3] | IC50 [4] | Ki [4]
